# Source: US20230220006A1, “REGENTIDE-034 AND COMPOSITION FOR IMPROVING CONDITION OF SKIN, CONTAINING SAME” (NI[…]., LTD., priority 2020, published 2023)
# Where a SMILES comes first, the peptide text is derived from it.
# What was measured:
# HaCaT cells = experiment: Cytotoxicity evaluation (CCK8) in epidermal keratinocytes; assay type: cell-based, human; details: 5 µM or 10 µM, 48 hours, FBS-free medium
# Procedure: (§1) The cytotoxicity of Regentide-034 prepared in Example 1 above was evaluated. Specifically, cytotoxicities were measured in HaCaT cells, which are human epidermal keratinocytes, and CCD-986Sk, which is human fibroblasts. Keratinocytes were dispensed at 3 × 10^3 cells/well and fibroblasts were dispensed at 5 × 10^3 cells/well in a 96-well plate, and then cultured in cell culture conditions for 24 hours in a medium containing 10% FBS. After culturing, 5 µM or 10 µM of Regentide-034 was added to an FBS-free medium, and this was cultured for 48 hours. Thereafter, 10 µl per well of CCK8 reaction solution (Dojindo Molecular Technologies, Kumamoto, Japan) was treated and reacted for 4 hours, and then absorbance was measured at 450 nm. The average absorbance value for each sample group was obtained, and the cell viability was evaluated by comparing it with the absorbance value of cells that had not been treated with Regentide-034 as a control group.
# CCD-986Sk = experiment: Cytotoxicity evaluation (CCK8) in fibroblasts; assay type: cell-based, human; details: 5 µM or 10 µM, 48 hours, FBS-free medium
# Procedure: as §1
compound,measurement,setting,value
"C[C@H](N)C(=O)N[C@@H](Cc1ccc(O)cc1)C(=O)NCC(=O)N[C@@H](CS)C(=O)N[C@@H](Cc1ccc(O)cc1)C(=O)N[C@@H](CS)C(=O)NCC(=O)N[C@@H](Cc1c[nH]c2ccccc12)C(=O)NCC(=O)NCC(N)=O [Regentide-034, AYGCYCGWGG-NH2] (H-AYGCYCGWGG-NH2)",cytotoxicity (cell viability) to epidermal keratinocytes,HaCaT cells,not toxic
same,cytotoxicity (cell viability) to fibroblasts,CCD-986Sk,not toxic
